For assay [1], the system named is human iPSC derived cerebral cortical neural stem/progenitor cells (hNSCs). Briefly: Neurogenesis and neuronal differentiation of hNSCs (MAP2+ cell count, immunohistochemistry). The format is cell-based. The note with it: for Mean % MAP2+ cells (3 days): 3 days incubation; for Mean % MAP2+ cells (3 days) / Mean % MAP2+ cells (5 days): hNSCs; for Mean % MAP2+ cells (5 days): 5 days incubation. As to the method: Human iPSC-derived cerebral cortical neural stem cells (hNSCs) (Axol Bioscience Inc., UK) were cultured as monolayers at a density of 1.0×10^4 cells/cm^2 on 100 mm diameter Petri dishes. The cells were collected from their original cryovial, suspended in Plating-XF Medium and plated on Petri dishes coated with SureBondXF 1× working solution prepared in D-PBS (without calcium or magnesium). hNSCs were incubated at 37° C. and 5% CO2 and 24 hours after of incubation, the plating medium was replaced with fresh Neural Expansion-XF Medium supplemented with the growth factors Recombinant Human EGF and Recombinant Human FGF2 (final concentration of 20 ng/mL (1×) of FGF2 and EGF). The cultures were re-fed with fresh Neural Expansion-XF supplemented with EGF and FGF2 every two days. When the hNSCs reached approximately 80% confluence, they were prepared for treatment. Pre-warmed Axol Unlock-XF was used to detach the cells and after 3 minutes of incubation the cells were re-suspended in Neural Expansion-XF Medium supplemented with EGF and FGF2. The cells (1×10^4 cells/cm^2) were then plated in Petri dishes coated with SureBondXF 1× and after 2 hours the medium was replaced with fresh Neural Expansion-XF supplemented with EGF and FGF2.
hNSCs cultured as described above were plated at a density of 1×10^4 cells/cm^2 on SureBondXF-coated coverslips in the presence of botanically derived purified CBD; synthetic CBD; or vehicle diluted in the Neural Differentiation-XF Medium (DM, without growth factors) for 3-5 days at 37° C. in a 5% CO2/95% air atmosphere.
Cannabinoids were dissolved in 95% (v/v) ethanol and added to the medium to obtain final concentrations of 0.1 or 1 μM CBD.
Ethanol was added to the vehicle-treated cells for the whole differentiation period of 3-5 days wherein the final concentration was never higher than 0.05% (v/v).
In order to perform immunohistochemistry, the cells were fixed with 4% (w/v) paraformaldehyde. Nonspecific binding was blocked with 10% (v/v) fetal bovine serum and 0.1% (v/v) Triton X-100 and incubated with primary antibodies: mouse anti-Map2ab (Sigma-Aldrich; 1:200) and rabbit anti-GFAP (DAKO; 1:200) or rabbit anti-Gap43 (Synaptic System; 1:300 at room temperature for 4 hours. Secondary antibodies—anti-mouse Alexa594 (Life Technologies; 1:100) and anti-rabbit Alexa488 (Life Technologies; 1:100)—were used for immunofluorescence. Cells were then counterstained with DAPI, washed with PBS and cover slipped with Aquatex mounting medium (Merck, Darmstadt, Germany). The immunofluorescence was studied with an epifluorescence microscope (Leica AF6000) equipped with the appropriate filter and then acquired using a digital camera (Leica, DFC 340) connected to the microscope and image analysis software (Leica, LAS AF). No immunoreactivity was found in the samples processed for the control of specificity of each primary antibody used in the study, which was performed by omitting the primary antibody before adding the appropriate secondary antibody.
Digital Leica LAS AF 2.2.0 software (Live Data Mode system) was used for counting Map2ab+DAPI+ cells. […] For each experimental condition, cells from 3 different tubes were each analyzed in triplicate and 3 frames were collected at 20× magnification. Data were analyzed with GraphPad Prism 6 software, version 6.05 (GraphPad, Inc.) and are expressed as mean±SEM. Statistical differences among groups were determined by two-way ANOVA followed by post hoc Bonferroni tests for comparison among means. […]

Assay [2] shares this test system. As to the kind of experiment: Axonal outgrowth and neuronal differentiation of hNSCs (GAP43 immunocytochemistry). The class given is cell-based. The following applies: 1 μM. As to the method:
Human iPSC-derived cerebral cortical neural stem cells (hNSCs) (Axol Bioscience Inc., UK) were cultured as monolayers at a density of 1.0×10^4 cells/cm^2 on 100 mm diameter Petri dishes. The cells were collected from their original cryovial, suspended in Plating-XF Medium and plated on Petri dishes coated with SureBondXF 1× working solution prepared in D-PBS (without calcium or magnesium). hNSCs were incubated at 37° C. and 5% CO2 and 24 hours after of incubation, the plating medium was replaced with fresh Neural Expansion-XF Medium supplemented with the growth factors Recombinant Human EGF and Recombinant Human FGF2 (final concentration of 20 ng/mL (1×) of FGF2 and EGF). The cultures were re-fed with fresh Neural Expansion-XF supplemented with EGF and FGF2 every two days. When the hNSCs reached approximately 80% confluence, they were prepared for treatment. Pre-warmed Axol Unlock-XF was used to detach the cells and after 3 minutes of incubation the cells were re-suspended in Neural Expansion-XF Medium supplemented with EGF and FGF2. The cells (1×10^4 cells/cm^2) were then plated in Petri dishes coated with SureBondXF 1× and after 2 hours the medium was replaced with fresh Neural Expansion-XF supplemented with EGF and FGF2. […]

Assay [3] concerns MES-induced tonic seizures. As to the kind of experiment: Maximal electroshock seizure (MES) test. The format is in vivo, mice. The following applies: for HED - mg (human equivalent dose): converted to HED of 10 mg/kg, assuming 60 kg human. As to the method:
This study was performed using male C57Bl6 mice, weighing between 23.6-31.2 g, which were purchased from a licensed breeder (Charles River, UK). Naïve mice were acclimatized to the procedure room in their home cages, with food and water available ad libitum. Animals were housed in groups of 2-3, in standard caging on a 12 hr/12 hr light-dark cycle. All animals were tail marked and weighed at the beginning of the study. Animals were randomly assigned to vehicle or treatment groups.
The following drugs were used in this study: synthetic CBD (SYN) and botanically derived purified CBD (BOT). The control vehicle used was (1:1:18), which was 5% Ethanol, 5% Kolliphor, 90% saline, and has been used extensively throughout similar seizure tests. All drugs were dissolved in the control vehicle for comparison. Animals were dosed (10 ml/kg) i.p. at 60 minutes prior to the administration of the maximal electroshock seizure (MES) test. In addition to the vehicle group, the dosage groups used for each treatment and included doses of 10, 50, 100 (Experiment 1 only), 150 and 200 mg/kg for CBD (SYN) and CBD (BOT). The number of animals in each of these groups were 10 (n=10).
Two separate experiments were undertaken using two different batches of the botanically derived purified CBD. In the first experiment the concentration of THC in botanically derived purified CBD was 0.02% THC (w/w) whereas in the second experiment the concentration of THC in the botanically derived purified CBD was approximately 0.1% THC (w/w).
The protective activity of CBD (SYN) and CBD (BOT) was evaluated and expressed as effective doses (ED50 in mg/kg), protecting 50% of mice against MES-induced tonic seizures. Electroconvulsions were produced by a fixed current intensity of 30 mA and corneally delivered electroshock (0.2 second duration). Mice were individually assessed for seizures following this pre-determined high level (30 mA) corneally delivered electroshock of sufficient intensity to reliably produce tonic hind limb extension seizures in 100% of control animals. […]

Assay [4] concerns sub-chronic PCP-induced deficit in novel object recognition. As to the kind of experiment: Novel object recognition (NOR) test after sub-chronic PCP. The format is in vivo, rats. As to the method: Female hooded-Lister rats were used for this experiment. Rats were housed in groups of 5 under standard laboratory conditions under a 12 hr light: dark cycle, with lights on at 0700 hr. Testing was carried out in the light phase. Rats were randomly assigned to two treatment groups and treated with vehicle, n=20 (distilled water, i.p.) or Phencyclidine hydrochloride (PCP), n=100 (2 mg/kg, i.p. twice daily for 7-days). PCP was dissolved in distilled water. This was followed by a 7-day wash out period before the rats were tested following acute treatment with CBD, risperidone or vehicle.
Risperidone (0.1 mg/kg) was dissolved in a minimum volume of acetic acid, made up to volume with distilled water and pH adjusted to 6 with 0.1M NaOH and administered via the i.p. route in a volume of 1 ml/kg, 120 minutes prior to testing.
Botanically derived purified CBD was tested at 2, 10, 20 or 100 mg/kg and was dissolved in 2:1:17 (Ethanol:Cremofor:Saline 0.9%) and administered via the i.p. route in a volume of 5 ml/kg, 60 minutes prior to testing. The THC concentration in the botanically derived purified CBD was 0.03% (w/w) THC.
Synthetic CBD at 1, 2, 5, 10 or 20 mg/kg was dissolved in 2:1:17 (Ethanol:Cremofor:Saline 0.9%) and administered via the i.p. route in a volume of 5 ml/kg, 120 minutes prior to testing.
Rats were allowed to habituate to the empty test box and the behavioral test room environment for one hour on day 1. Prior to behavioral testing on day 2, rats were given a further 3 minute habituation.
Following the 3 minute habituation period, the rats are given two 3 minute trials (T1 and T2) which were separated by a 1 minute inter-trial interval in the home cage during which the objects were changed. Behavior in all trials was recorded on video for subsequent blind scoring.
In the acquisition trial (T1), the animals were allowed to explore two identical objects (A1 and A2) for 3 minutes. In the retention trial (T2), the animals were allowed to explore a familiar object (A) from T1 and a novel object (B) for 3 minutes. […]
The exploration time(s) of each object (A, B, familiar and novel) in each trial were recorded using two stopwatches and the following factors were calculated: total exploration time of both objects in the acquisition trial, total exploration time of both objects in the retention trial. Habituation of exploratory activity included the exploration time, as measured by the number of lines crossed, for both trials.
All data were assessed for normality using D'Agostino and Pearson normality test. Data non-normally distributed were analyzed using Kruskal-Wallis followed by planned comparisons with Dunn's correction. Normally distributed data were analyzed using one-way ANOVA followed by planned comparisons with Sidak's correction. […]

Take `C=C(C)[C@@H]1CCC(C)=C[C@H]1c1c(O)cc(CCCCC)cc1O` [Synthetic CBD, 2-[(1R,6R)-3-Methyl-6-(1-methylethenyl)-2-cyclohexen-1-yl]-5-pentyl-1,3-benzenediol]: the figures for the “Mean % MAP2+ cells (3 days)” value in assay [1] (0.1 μM) and in assay [1] (1 μM) were 4.87 ± 0.1% and 6.11 ± 0.3%, respectively. Also, the “Mean % MAP2+ cells (5 days)” value in assay [1] (0.1 μM) is given as 6.02 ± 0.3%; in assay [1] (1 μM), 7.09 ± 0.1%. The “Effect on neurogenesis and neuronal differentiation of hNSCs (in words)” value in assay [1] (0.1 and 1 μM, 3 or 5 days, relative to vehicle-treated cells) is “did not have a significant effect”. Also, in assay [2] (3 days incubation), the “Mean % GAP43+ cells (3 days)” value came to 8.40 ± 2.0%. In assay [2] (5 days incubation), the “Mean % GAP43+ cells (5 days)” value is 9.15 ± 1.6%. The “HED - mg (human equivalent dose)” value in assay [3] (Experiment 1) and in assay [3] (Experiment 2) was 600.0 mg each time. The “ED50 protecting 50% of mice against MES-induced tonic seizures” value in assay [3] (Experiment 1, i.p. 60 minutes prior to MES, sigmoidal curve - constant top, listed as CBD (SYN)) came out at 77.60 mg/kg. The “human daily amount equivalent to the rat MED” value in assay [4] (70 kg human) is 112 mg/day. Also, in assay [4] (from difference in MED), the “amount of CBD required in a human relative to botanically derived purified CBD” value was “five times the amount of CBD”. For the same compound, the “human equivalent dose of the rat MED” value in assay [4] (rat dose multiplied by 0.16 (FDA dose conversion guidance)) came to 1.6 mg/kg/day. Besides, the “minimal effective dose (MED) attenuating sub-chronic PCP-induced deficit in novel object recognition” value in assay [4] (rats, i.p., 120 min ppt) is on record as 10 mg/kg.

The values are drawn from patent US20210052512A1, “CANNABIDIOL PREPARATIONS AND ITS USES” (GW Research Limited, priority 2018, published 2021).
